Legend:
HEK293T cells [1] = assay: 3-germ layer immunocytochemistry of embryoid bodies (FIG. 29); type: cell-based, human; settings: compared with H1 and iPSCs
Excerpt: (§1) Pluripotent cells can differentiate into all cell types, so these cells can be a biological resource for regenerative medicine. Somatic cells can acquire the embryonic stem cell-like pluripotency by the introduction of four transcription factors, Oct4, Sox2, Klf4 and c-Myc (Yamanaka factors). Murine ES-like cell lines were established from mouse embryonic fibroblasts (MEFs) and skin fibroblasts by simply expressing these four transcription factor genes encoding Oct4, Sox2, Klf4, and c-Myc (71). After introducing active transcription factors into somatic cells, the somatic cells closely resemble ES cells in gene expression patterns, cell biologic and phenotypic characteristics. Since then, numerous studies have established that these transcription factors mediate reprogramming regardless of developmental origins and epigenetic states of a cell. These transcription factors are non-functional in somatic cells due to gene silencing. […] Using the technology disclosed herein, nuclear reprogramming of somatic cells was induced possibly due to active Oct4, Sox2, Nanog, and other pluripotency genes, reduced DNA methylation, reduced histone methylation, and altered metabolism of certain biochemical factors (such as glutamine, glutamate, and GABA). This leads to the formation of embryoid bodies from single cells and differentiation into the mesoderm, endoderm, and neuronal ectoderm lineages with high efficiency in the differentiation medium. The 3-Germ Layer Immunocytochemistry Kit (ThermoFisher Scientific, USA), which analyzes spontaneously differentiated embryoid bodies derived from pluripotent stem cells for the presence of all 3-germ layers, was used to confirm the reprogramming. The assay detected widely accepted markers characteristic of the three embryonic germ layers: beta-Ill tubulin (TUJ1) for ectoderm, smooth muscle actin (SMA) for mesoderm, and alpha-fetoprotein (AFP) for endoderm. […] The ectoderm which differentiates to form the nervous system (spine, peripheral nerves, neurons, and brain) was not tested with this kit; however, the presence of neurons was confirmed by a different marker. A Human Neural Stem Cell Immunocytochemistry Kit (ThermoFisher Scientific, USA) which enables a convenient image-based analysis of common markers of human neural stem cells such as Nestin was used. […] Together, the disclosed methods result in the presence of all 3-germ layers in the MTX/PTX treated cells and these treated cells can differentiate into all cell types including beta cells.
(§2) A 3-germ layer immunocytochemistry kit (Thermo Fisher Scientific, USA) was used to assess the pluripotency of embryoid bodies derived from MTX and PTX treated cells.

HF57 = assay: as above; type: cell-based, human; settings: compared with H1 and iPSCs
Excerpt: as §1, §2

HEK293T cells [2] = assay: Histone methylation levels (FIG. 19); type: cell-based, human; settings: vs control
Method: (§3) Calculation of methylation level (based on OD values as shown on y-axis) was performed according to manufacturer's instructions. Representative histogram from three independent experiments are shown. All data are presented as the mean±standard error (SE) of triplicate measurements. *P<0.05, ***P<0.001.

HF57 cells = assay: Histone methylation levels (FIG. 19); type: cell-based, human; settings: vs control
Method: as §3

[3] = system: human fibroblast cells (HF57); assay: Cell proliferation under prolonged MTX/PTX application, with or without HT (FIG. 16); type: cell-based; settings: controlled application, 5% dialyzed-FBS DMEM, 1 μM MTX for 7-days
Method: (§4) The cells were grown in 5% dialyzed-FBS DMEM medium. 293T cells were treated with 500 nM MTX, and HF57 cells and HDF cells were treated with 1 μM MTX for 7-days. Because inhibition of DHFR and TS by folate antagonists (MTX, PTX) results in a deficiency in the cellular pools of thymidylate and purines and thus a decrease in nucleic acid synthesis, sodium hypoxanthine (10 mM) and thymidine (1.6 mM) were added to the medium to overcome the effects of MTX and PTX. […] The cells were harvested for DNA/RNA isolation and analyzed for gene expression and DNA methylation.

[4] = system: human dermal fibroblast (HDF) cells; assay: as above; type: cell-based; settings: controlled application, 5% dialyzed-FBS DMEM, 1 μM MTX for 7-days
Method: as §4

293T cells = assay: qRT-PCR relative transcript levels of ANKRD1 and ANOS (FIG. 22, 23); type: cell-based, human; settings: vs control cells
Method: To validate microarray results, quantitative 2-step RT-PCR was performed. One microgram of total RNA was reverse transcribed to first-strand cDNA with the Qiagen cDNA Synthesis Kit (Qiagen), and this cDNA was subsequently used as a template for quantitative PCR with gene-specific primers. The ubiquitous β-actin gene served as a control for constitutive gene expression. The quantitative RT-PCR (qRT-PCR) reactions were performed using Power Sybr Green PCR Master Mix (Thermo Fisher Scientific) on a CFX96 Touch Real-Time PCR Detection System (Bio-Rad, Hercules, CA, USA). Relative expression levels (2^−ΔCt) were calculated according to the Livak and Schmittgen method (40). Expression levels of each gene were compared with the expression level of actin.

[5] = system: MTX/PTX treated, SSEA4 positive cells; assay: Neural differentiation (FIG. 30); type: cell-based, human; settings: neural differentiation medium, laminin coated plates, 10-15-days
Method: For neural differentiation, MTX/PTX treated, SSEA4 positive cells were initially grown onto Matrigel-coated 6-well plates in mTeSR1 medium. To induce neural differentiation, the cells were dissociated and passaged onto laminin (20 μg ml−1; Sigma-Aldrich, USA) coated plates and grown in Neurobasal medium (Thermo Fisher Scientific, USA) or RPMI1640 medium (Gibco, USA) for 10-15-days at 37° C./5% CO2. The medium was supplemented with 1% serum free B-27 (Gibco, USA), 1% Glutamax (Gibco, USA), 1% NEAA (Gibco, USA), and 1% penicillin/streptomycin (Gibco, USA).

Row | Compound | presence of three germ layers in embryoid bodies (HEK293T cells [1]) | presence of three germ layers in embryoid bodies (HF57) | Dimethyl H3-K9 methylation (HEK293T cells [2]) | global histone H3-K4 methylation (HEK293T cells [2]) | Dimethyl H3-K9 methylation (HF57 cells) | global histone H3-K4 methylation (HF57 cells) | cell proliferation [3] | cell proliferation [4] | relative transcripts level of ANOS (293T cells) | relative transcripts level of Ankyrin repeat domain 1 (ANKRD1) (293T cells) | differentiation into neural cells [5]
1 | CN(Cc1cnc2nc(N)nc(N)c2n1)c1ccc(C(=O)N[C@@H](CCC(=O)O)C(=O)O)cc1 [MTX, methotrexate] | confirmed the presence of all three germ layers | confirmed the presence of all three germ layers | significantly reduced | significantly reduced | significantly reduced | significantly reduced | reduced cell proliferation | reduced cell proliferation | significantly higher | significantly higher | can differentiate into neural cells
2 | Nc1nc2[nH]cc(CCc3ccc(C(=O)N[C@@H](CCC(=O)O)C(=O)O)cc3)c2c(=O)[nH]1 [PTX, pemetrexed] | confirmed the presence of all three germ layers | confirmed the presence of all three germ layers | significantly reduced | significantly reduced | significantly reduced | significantly reduced | reduced cell proliferation | reduced cell proliferation | significantly higher | significantly higher | can differentiate into neural cells
